Reference: PMC8213057, “Targeting ALK2: An Open Science Approach to Developing Therapeutics for the Treatment of Diffuse Intrinsic Pontine Glioma” (Journal of Medicinal Chemistry, 2020)

Experiments:
ALK6/BMPR1B = target: T1, ALK6/BMPR1B (Homo sapiens, UniProt O00238); assay: 375-member kinase panel; assay type: biochemical; conditions: Run 1, Run 2; for % enzyme activity: 1 μM; for remaining activity at 1 µM: read-out: % enzyme activity, 1 μM
T1 construct: purchased Reaction Biology Corporation

CK1d = CK1d (Homo sapiens, UniProt P48730); conditions: 1 μM; Run 1, Run 2
FGR = FGR (Homo sapiens, UniProt P09769); conditions: 1 μM; Run 1, Run 2
FLT4/VEGFR3 = FLT4/VEGFR3 (Homo sapiens, UniProt P35916); conditions: 1 μM; Run 1, Run 2
GRK5 = GRK5 (Homo sapiens, UniProt P34947); conditions: 1 μM; Run 1, Run 2
MLK4 = MLK4 (Homo sapiens, UniProt Q5TCX8); conditions: 1 μM; Run 1, Run 2
PHKg2 = target: T2, PHKg2 (Homo sapiens, UniProt P15735); conditions: 1 μM; Run 1, Run 2
T2 sequence (P15735 1-406): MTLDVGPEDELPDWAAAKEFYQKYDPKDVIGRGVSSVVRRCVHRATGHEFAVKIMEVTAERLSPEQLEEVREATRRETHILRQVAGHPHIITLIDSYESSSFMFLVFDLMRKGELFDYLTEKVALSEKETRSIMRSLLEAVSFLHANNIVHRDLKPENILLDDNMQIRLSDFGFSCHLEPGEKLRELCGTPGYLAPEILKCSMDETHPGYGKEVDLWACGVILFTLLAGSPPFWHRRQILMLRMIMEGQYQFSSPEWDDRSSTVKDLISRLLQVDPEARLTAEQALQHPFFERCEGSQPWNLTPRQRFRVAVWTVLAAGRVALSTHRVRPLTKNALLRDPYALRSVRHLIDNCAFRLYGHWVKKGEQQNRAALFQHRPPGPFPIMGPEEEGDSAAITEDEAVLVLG

TRKC = TRKC (Homo sapiens, UniProt Q16288); conditions: 1 μM; Run 1, Run 2
CAMK1b = CAMK1b (Homo sapiens, UniProt Q6P2M8); assay: biochemical; conditions: read-out: % enzyme activity, 1 μM; Run 1, Run 2
CAMK2b = CAMK2b (Homo sapiens, UniProt Q13554); assay: biochemical; conditions: read-out: % enzyme activity, 1 μM; Run 1, Run 2
CDK3/cyclin E2 = CDK3/cyclin E2 (Homo sapiens, UniProt Q00526); assay: biochemical; conditions: read-out: % enzyme activity, 1 μM; Run 1, Run 2
CDK9/cyclin T2 = CDK9/cyclin T2 (Homo sapiens, UniProt P50750); assay: biochemical; conditions: read-out: % enzyme activity, 1 μM; Run 1, Run 2
GRK2 = target: T3, GRK2 (Homo sapiens, UniProt P25098); assay: biochemical; conditions: read-out: % enzyme activity, 1 μM; Run 1, Run 2
T3 sequence (P25098 1-689): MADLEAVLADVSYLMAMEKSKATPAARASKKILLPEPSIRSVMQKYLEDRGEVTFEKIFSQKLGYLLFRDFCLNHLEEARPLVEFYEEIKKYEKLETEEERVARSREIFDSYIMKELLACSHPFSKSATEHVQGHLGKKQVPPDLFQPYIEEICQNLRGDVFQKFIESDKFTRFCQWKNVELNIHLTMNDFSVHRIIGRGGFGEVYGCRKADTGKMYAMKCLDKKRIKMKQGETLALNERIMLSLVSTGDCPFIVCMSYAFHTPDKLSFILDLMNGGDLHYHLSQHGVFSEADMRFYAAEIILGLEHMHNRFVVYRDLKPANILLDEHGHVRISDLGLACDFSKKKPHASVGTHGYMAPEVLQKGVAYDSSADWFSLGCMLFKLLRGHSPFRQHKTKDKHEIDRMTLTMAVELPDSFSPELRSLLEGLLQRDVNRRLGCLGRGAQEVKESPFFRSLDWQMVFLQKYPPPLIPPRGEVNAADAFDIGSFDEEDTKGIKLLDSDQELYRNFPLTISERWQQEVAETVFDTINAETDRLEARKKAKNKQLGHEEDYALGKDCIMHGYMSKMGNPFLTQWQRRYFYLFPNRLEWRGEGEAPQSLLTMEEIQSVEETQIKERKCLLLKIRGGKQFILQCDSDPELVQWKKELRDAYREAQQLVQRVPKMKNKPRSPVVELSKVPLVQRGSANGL

JNK3 = JNK3 (Homo sapiens, UniProt P53779); assay: biochemical; conditions: read-out: % enzyme activity, 1 μM; Run 1, Run 2
MYLK3 = target: T4, MYLK3 (Homo sapiens, UniProt Q32MK0); assay: biochemical; conditions: read-out: % enzyme activity, 1 μM; Run 1, Run 2
T4 sequence (Q32MK0 1-819): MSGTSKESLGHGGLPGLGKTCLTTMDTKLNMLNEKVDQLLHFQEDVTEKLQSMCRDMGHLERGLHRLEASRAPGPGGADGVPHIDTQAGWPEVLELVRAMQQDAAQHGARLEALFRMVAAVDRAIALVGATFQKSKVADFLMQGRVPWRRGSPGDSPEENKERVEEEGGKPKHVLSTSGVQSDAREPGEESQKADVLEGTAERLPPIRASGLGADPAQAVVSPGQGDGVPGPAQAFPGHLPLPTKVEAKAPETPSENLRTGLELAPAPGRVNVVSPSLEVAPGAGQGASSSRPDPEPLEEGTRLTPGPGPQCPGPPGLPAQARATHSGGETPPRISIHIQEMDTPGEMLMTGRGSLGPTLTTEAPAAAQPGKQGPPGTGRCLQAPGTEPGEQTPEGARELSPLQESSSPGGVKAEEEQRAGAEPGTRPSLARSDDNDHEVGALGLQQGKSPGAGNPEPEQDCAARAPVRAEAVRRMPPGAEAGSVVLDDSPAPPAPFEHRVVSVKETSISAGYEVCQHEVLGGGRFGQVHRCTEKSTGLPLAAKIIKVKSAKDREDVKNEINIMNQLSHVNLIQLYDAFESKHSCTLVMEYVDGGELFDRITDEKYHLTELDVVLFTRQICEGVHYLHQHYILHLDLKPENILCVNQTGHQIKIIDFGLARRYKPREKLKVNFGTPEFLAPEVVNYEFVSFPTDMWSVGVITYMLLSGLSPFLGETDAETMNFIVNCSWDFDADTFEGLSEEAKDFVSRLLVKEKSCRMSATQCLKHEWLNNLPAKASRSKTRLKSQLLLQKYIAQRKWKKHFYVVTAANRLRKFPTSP

ROCK1 = ROCK1 (Homo sapiens, UniProt Q13464); assay: biochemical; conditions: read-out: % enzyme activity, 1 μM; Run 1, Run 2
SLK/STK2 = SLK/STK2 (Homo sapiens, UniProt Q9H2G2); assay: biochemical; conditions: read-out: % enzyme activity, 1 μM; Run 1, Run 2

T1 sequence (O00238 14-502): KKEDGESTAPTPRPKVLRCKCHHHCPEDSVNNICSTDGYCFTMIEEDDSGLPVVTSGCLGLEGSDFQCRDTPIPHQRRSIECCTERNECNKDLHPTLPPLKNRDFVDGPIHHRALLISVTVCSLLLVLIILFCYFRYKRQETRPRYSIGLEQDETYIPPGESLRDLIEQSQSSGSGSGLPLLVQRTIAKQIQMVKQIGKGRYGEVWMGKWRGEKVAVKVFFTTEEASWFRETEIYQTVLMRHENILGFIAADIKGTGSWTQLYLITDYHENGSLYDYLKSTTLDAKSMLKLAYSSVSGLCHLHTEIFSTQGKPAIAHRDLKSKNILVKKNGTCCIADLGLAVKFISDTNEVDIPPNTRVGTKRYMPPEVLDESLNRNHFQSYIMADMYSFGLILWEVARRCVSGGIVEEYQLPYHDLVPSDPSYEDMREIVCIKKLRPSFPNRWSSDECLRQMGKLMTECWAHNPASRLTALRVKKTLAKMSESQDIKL
Chain of ROCK1 (Q13464 whole entry): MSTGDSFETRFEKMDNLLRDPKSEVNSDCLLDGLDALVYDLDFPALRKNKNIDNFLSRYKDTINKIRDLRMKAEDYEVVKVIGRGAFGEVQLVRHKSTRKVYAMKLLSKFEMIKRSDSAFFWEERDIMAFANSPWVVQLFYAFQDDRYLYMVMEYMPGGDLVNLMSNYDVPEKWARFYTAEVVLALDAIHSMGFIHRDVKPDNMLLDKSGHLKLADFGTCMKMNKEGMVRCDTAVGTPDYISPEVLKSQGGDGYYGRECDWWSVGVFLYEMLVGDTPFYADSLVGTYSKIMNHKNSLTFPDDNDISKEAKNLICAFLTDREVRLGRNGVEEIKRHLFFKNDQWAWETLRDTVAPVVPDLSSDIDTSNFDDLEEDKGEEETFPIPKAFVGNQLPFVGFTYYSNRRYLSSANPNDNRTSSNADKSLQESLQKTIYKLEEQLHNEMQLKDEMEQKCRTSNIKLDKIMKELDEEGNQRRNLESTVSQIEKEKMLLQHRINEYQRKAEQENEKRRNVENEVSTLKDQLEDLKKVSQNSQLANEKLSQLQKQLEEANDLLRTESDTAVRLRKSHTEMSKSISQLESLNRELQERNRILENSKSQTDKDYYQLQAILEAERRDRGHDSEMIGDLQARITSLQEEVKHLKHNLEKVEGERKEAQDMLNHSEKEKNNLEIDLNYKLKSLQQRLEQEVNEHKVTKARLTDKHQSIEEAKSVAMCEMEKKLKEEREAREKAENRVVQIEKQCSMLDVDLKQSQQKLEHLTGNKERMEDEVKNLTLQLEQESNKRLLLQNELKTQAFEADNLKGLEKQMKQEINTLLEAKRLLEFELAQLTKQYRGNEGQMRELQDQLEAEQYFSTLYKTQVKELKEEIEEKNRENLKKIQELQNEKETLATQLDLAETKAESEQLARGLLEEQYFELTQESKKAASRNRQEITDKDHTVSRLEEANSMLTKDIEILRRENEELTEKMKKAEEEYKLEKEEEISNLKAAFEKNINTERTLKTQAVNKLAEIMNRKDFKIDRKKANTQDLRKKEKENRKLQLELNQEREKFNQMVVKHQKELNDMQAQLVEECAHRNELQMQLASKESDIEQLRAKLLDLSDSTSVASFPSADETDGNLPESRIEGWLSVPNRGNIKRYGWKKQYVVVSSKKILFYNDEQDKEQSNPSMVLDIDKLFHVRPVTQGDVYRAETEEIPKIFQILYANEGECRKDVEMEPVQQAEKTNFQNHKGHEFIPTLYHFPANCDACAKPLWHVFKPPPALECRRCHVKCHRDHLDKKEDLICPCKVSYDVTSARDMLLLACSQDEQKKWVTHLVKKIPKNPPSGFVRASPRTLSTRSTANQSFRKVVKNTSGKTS
Chain of CAMK2b (Q13554 whole entry): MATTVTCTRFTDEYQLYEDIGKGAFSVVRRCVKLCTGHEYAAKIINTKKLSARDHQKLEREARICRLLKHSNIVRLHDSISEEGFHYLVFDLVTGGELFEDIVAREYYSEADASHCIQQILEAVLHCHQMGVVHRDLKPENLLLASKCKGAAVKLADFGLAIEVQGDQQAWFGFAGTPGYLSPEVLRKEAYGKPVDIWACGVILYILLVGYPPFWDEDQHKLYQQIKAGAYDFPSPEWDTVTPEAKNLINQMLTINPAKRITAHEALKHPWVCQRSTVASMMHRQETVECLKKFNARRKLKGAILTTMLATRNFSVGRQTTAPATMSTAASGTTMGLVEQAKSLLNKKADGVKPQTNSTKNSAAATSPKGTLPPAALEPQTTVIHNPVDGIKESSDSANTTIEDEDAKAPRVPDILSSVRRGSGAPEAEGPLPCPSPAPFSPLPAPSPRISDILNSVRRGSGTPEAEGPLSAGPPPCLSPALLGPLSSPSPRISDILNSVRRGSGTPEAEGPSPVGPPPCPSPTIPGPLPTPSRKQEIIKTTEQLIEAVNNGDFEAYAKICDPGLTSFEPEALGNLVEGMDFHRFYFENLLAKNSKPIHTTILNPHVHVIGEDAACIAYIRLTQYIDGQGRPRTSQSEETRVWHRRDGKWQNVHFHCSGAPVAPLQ
Chain of CDK9/cyclin T2 (P50750 whole entry): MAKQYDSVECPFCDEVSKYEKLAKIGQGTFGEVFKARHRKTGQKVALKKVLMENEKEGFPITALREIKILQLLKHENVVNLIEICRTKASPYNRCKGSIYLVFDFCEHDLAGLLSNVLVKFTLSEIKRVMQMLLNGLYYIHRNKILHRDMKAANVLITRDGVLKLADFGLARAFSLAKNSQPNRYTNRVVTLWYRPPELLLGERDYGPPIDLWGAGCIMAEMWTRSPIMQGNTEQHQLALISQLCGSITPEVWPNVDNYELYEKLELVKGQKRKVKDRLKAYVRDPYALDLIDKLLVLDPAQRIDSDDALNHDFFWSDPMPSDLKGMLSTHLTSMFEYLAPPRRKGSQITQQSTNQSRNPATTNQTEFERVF
Chain of CDK9/cyclin T2 (O60583 whole entry partner): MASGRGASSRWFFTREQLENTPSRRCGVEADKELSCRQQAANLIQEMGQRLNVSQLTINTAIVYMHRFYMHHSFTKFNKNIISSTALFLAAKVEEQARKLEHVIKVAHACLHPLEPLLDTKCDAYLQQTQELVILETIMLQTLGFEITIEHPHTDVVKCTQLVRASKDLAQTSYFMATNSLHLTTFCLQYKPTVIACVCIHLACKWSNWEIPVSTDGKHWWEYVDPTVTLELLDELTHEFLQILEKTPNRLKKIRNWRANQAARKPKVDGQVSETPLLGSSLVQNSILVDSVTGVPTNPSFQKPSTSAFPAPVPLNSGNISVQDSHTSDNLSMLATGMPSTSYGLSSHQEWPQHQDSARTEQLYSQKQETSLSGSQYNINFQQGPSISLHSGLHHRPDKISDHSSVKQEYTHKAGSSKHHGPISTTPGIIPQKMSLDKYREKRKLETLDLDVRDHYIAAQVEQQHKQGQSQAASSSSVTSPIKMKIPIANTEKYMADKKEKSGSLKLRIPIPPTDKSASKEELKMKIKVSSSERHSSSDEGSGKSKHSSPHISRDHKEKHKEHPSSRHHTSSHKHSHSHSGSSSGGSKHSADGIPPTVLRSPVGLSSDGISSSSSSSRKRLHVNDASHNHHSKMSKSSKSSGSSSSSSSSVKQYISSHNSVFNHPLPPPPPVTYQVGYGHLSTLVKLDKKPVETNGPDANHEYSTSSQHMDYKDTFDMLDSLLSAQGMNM
Chain of GRK5 (P34947 whole entry): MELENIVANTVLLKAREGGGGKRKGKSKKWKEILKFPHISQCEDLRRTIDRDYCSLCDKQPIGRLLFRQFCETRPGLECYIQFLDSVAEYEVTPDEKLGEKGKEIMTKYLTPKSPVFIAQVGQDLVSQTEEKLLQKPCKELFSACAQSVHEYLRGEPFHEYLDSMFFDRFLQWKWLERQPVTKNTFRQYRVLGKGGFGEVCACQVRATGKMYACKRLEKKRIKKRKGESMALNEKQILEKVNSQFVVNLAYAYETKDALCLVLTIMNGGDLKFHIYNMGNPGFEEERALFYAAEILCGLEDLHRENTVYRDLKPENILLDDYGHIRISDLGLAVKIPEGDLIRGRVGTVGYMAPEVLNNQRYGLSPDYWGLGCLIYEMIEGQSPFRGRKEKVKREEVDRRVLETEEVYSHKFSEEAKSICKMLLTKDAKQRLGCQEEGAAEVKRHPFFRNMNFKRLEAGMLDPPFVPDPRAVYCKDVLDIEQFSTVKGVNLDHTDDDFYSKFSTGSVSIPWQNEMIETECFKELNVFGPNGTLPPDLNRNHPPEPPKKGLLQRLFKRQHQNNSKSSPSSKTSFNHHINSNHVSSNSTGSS
Chain of CAMK1b (Q6P2M8 whole entry): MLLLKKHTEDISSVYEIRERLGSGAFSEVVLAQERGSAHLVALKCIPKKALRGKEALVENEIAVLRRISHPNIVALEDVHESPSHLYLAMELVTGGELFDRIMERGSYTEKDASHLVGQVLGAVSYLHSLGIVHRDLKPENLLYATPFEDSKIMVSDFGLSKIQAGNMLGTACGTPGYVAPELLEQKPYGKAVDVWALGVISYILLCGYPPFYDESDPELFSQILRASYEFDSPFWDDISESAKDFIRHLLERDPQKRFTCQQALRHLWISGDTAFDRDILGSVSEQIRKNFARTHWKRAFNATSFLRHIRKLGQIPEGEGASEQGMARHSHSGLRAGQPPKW
Chain of CK1d (P48730 whole entry): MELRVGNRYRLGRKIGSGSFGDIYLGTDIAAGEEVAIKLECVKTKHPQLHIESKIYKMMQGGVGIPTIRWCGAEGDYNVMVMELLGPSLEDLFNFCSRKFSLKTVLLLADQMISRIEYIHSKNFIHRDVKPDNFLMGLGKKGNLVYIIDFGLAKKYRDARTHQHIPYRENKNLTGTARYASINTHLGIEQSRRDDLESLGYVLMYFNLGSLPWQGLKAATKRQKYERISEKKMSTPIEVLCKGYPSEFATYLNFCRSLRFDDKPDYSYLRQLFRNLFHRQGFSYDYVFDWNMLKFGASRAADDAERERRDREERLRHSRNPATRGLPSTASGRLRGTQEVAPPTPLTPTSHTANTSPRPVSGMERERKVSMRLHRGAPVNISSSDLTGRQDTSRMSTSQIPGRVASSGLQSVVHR

Structure (SMILES): COc1cc(-c2cncc(-c3ccc(N4C[C@@H](C)N(C)[C@@H](C)C4)cc3)c2C)cc(F)c1C(N)=O [Compound 26c, 2-Fluoro-6-methoxy-4-(4-methyl-5-(4-((3R,5S)-3,4,5-trimethylpiperazin-1-yl)phenyl)pyridin-3-yl)benzamide]
- % enzyme activity (ALK6/BMPR1B): 30.06%
- remaining activity at 1 µM (ALK6/BMPR1B): 30.2%
- % enzyme activity (CK1d): 108.05%
- % enzyme activity (FGR): 86.35%
- % enzyme activity (FLT4/VEGFR3): 96.61%
- % enzyme activity (GRK5): 91.62%
- % enzyme activity (MLK4): 93.38%
- % enzyme activity (PHKg2): 96.43%
- % enzyme activity (TRKC): 97.50%
- remaining activity at 1 µM (CAMK1b): 99.4%
- remaining activity at 1 µM (CAMK2b): 92.8%
- remaining activity at 1 µM (CDK3/cyclin E2): 86.2%
- remaining activity at 1 µM (CDK9/cyclin T2): 102%
- remaining activity at 1 µM (GRK2): 101%
- remaining activity at 1 µM (JNK3): 104%
- remaining activity at 1 µM (MYLK3): 100%
- remaining activity at 1 µM (ROCK1): 94.7%
- remaining activity at 1 µM (SLK/STK2): 101%

Structure (SMILES): COc1cc(-c2cncc(-c3ccc(N4CCN(C)CC4)cc3)c2C)cc(F)c1C(N)=O [Compound 26a, 2-Fluoro-6-methoxy-4-(4-methyl-5-(4-(4-methylpiperazin-1-yl)phenyl)pyridin-3-yl)benzamide]
- % enzyme activity (ALK6/BMPR1B): 17.03%
- remaining activity at 1 µM (ALK6/BMPR1B): 18.2%
- % enzyme activity (CK1d): 94.27%
- % enzyme activity (FGR): 74.69%
- % enzyme activity (FLT4/VEGFR3): 97.81%
- % enzyme activity (GRK5): 99.06%
- % enzyme activity (MLK4): 95.21%
- % enzyme activity (PHKg2): 93.32%
- % enzyme activity (TRKC): 101.44%
- remaining activity at 1 µM (CAMK1b): 97.9%
- remaining activity at 1 µM (CAMK2b): 83.9%
- remaining activity at 1 µM (CDK3/cyclin E2): 89.5%
- remaining activity at 1 µM (CDK9/cyclin T2): 100%
- remaining activity at 1 µM (GRK2): 105%
- remaining activity at 1 µM (JNK3): 96.4%
- remaining activity at 1 µM (MYLK3): 99.8%
- remaining activity at 1 µM (ROCK1): 95%
- remaining activity at 1 µM (SLK/STK2): 100%
